The target in one experiment is A3B2 (Rattus norvegicus, UniProt P04757+P12390). The experiment is described as follows: PDSP radioligand binding, nicotinic receptor α3 ß2. The text has this: (§1) [17] and http://pdsp.med.unc.edu/UNC-CH%20Protocol%20Book.pdf.
For the next experiment, the target named is KOR (Homo sapiens, UniProt P41145). The experiment is described as follows: PDSP radioligand binding, opioid receptor KOR.
From the text: as §1

Another experiment concerns the target T1, M1 (Homo sapiens, UniProt P11229).
T1 sequence (P11229 1-460): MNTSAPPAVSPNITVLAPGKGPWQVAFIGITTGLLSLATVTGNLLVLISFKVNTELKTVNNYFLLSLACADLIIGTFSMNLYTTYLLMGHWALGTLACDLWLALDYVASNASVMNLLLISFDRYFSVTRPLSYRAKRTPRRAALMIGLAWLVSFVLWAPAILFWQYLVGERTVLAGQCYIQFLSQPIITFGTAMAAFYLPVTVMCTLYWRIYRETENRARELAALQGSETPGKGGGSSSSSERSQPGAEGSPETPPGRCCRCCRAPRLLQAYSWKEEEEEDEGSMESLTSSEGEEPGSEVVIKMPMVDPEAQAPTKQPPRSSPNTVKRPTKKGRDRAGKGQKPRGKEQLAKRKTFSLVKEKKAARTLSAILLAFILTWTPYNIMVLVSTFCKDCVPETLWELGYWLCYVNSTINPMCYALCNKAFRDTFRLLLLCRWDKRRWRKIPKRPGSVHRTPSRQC
The experiment can be described thus: PDSP radioligand binding, muscarinic receptor M1.
From the text: as §1

For a further experiment, the target named is BZP Rat Brain Site. The experiment is described as follows: PDSP radioligand binding, benzodiazepine site on GABA-A. To be noted: Table S1; unit inferred.
From the text: as §1

A further experiment deals with GABAA. The experiment is described as follows: PDSP radioligand binding, GABA-A. To be noted: Table S1; unit inferred.
From the text: as §1

A further experiment has as its target T2, M5 (Homo sapiens, UniProt P08912).
T2 sequence (P08912 1-532): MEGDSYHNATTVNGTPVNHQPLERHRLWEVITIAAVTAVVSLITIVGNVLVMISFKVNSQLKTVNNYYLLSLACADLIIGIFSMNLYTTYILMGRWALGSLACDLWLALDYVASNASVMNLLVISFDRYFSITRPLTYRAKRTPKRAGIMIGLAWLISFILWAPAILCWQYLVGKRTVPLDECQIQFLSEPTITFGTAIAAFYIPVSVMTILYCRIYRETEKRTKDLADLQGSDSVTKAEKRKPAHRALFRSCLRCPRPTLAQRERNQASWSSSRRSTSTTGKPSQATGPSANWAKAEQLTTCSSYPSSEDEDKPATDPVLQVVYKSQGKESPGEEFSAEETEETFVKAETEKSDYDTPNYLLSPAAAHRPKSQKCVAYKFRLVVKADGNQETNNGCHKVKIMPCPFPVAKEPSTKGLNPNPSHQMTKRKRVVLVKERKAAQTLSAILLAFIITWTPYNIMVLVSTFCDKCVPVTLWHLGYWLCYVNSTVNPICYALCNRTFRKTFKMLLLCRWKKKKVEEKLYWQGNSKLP
The experiment can be described thus: PDSP radioligand binding, muscarinic receptor M5.
From the text: as §1

Another experiment has as its target A4B4 (Rattus norvegicus, UniProt P09483+P12392). The experiment is described as follows: PDSP radioligand binding, nicotinic receptor α4 ß4.
From the text: as §1

In a further experiment the target is Sigma1 (Homo sapiens, UniProt Q99720). The experiment can be described thus: PDSP radioligand binding, Sigma1.
From the text: as §1

Another experiment addresses Beta2 (Homo sapiens, UniProt P07550). The experiment can be described thus: PDSP radioligand binding, adrenoceptor ß2.
From the text: as §1

The target of a further experiment is T3, Alpha2A (Homo sapiens, UniProt P08913).
T3 sequence (P08913 1-465): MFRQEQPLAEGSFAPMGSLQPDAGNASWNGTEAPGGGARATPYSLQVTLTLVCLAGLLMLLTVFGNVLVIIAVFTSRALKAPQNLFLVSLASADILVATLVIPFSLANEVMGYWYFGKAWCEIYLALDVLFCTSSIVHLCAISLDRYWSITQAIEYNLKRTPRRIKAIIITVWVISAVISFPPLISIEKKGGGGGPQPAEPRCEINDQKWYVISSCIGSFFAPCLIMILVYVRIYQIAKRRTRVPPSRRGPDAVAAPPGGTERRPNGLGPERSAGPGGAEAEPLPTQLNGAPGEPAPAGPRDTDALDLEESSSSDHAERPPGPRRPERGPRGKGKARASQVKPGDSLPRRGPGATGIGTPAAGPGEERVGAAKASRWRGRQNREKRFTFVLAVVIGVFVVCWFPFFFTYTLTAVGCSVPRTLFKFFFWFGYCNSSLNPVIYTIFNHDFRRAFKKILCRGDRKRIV
The experiment can be described thus: PDSP radioligand binding, adrenoceptor α2A.
From the text: as §1

In a further experiment the target is D5 (Homo sapiens, UniProt P21918). The experiment is described as follows: PDSP radioligand binding, dopamine receptor D5.
D5, sequence (P21918 whole entry): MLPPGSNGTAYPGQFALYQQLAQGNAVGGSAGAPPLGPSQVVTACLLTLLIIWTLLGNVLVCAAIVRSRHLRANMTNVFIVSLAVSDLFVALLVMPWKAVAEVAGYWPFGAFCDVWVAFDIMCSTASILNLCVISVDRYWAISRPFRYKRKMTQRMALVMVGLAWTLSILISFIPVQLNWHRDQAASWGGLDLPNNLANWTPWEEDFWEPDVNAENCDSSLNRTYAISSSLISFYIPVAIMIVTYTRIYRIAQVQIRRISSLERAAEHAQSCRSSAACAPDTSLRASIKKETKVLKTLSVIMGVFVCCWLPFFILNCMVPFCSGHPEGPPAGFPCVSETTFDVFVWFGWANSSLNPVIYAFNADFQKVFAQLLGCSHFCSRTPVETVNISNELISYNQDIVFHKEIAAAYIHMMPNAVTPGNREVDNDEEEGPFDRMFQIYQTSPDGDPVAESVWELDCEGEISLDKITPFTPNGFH
From the text: as §1

The next experiment addresses H1 (Homo sapiens, UniProt P35367). The experiment is described as follows: PDSP radioligand binding, histamine receptor H1.
From the text: as §1

Another experiment concerns the target H3 (Homo sapiens, UniProt Q9Y5N1). The experiment can be described thus: PDSP radioligand binding, histamine receptor H3.
From the text: as §1

In another experiment the target is T4, 5-HT2C (Homo sapiens, UniProt P28335).
T4 sequence (P28335 33-458): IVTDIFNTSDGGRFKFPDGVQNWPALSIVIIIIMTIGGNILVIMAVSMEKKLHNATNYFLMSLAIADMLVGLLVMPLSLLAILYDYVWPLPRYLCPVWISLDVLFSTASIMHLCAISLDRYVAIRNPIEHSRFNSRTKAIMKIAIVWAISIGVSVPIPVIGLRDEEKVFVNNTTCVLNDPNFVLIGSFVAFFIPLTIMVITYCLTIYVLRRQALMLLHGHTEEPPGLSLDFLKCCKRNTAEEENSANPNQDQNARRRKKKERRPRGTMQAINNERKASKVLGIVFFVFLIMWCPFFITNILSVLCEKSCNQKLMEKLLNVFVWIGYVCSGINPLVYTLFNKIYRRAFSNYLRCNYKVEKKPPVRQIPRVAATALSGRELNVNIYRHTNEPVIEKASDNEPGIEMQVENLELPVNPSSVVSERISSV
The experiment is described as follows: PDSP radioligand binding, serotonin receptor 5-HT2C.
From the text: as §1

Another experiment deals with M3 (Homo sapiens, UniProt P20309). The experiment is described as follows: PDSP radioligand binding, muscarinic receptor M3.
M3, sequence (P20309 whole entry): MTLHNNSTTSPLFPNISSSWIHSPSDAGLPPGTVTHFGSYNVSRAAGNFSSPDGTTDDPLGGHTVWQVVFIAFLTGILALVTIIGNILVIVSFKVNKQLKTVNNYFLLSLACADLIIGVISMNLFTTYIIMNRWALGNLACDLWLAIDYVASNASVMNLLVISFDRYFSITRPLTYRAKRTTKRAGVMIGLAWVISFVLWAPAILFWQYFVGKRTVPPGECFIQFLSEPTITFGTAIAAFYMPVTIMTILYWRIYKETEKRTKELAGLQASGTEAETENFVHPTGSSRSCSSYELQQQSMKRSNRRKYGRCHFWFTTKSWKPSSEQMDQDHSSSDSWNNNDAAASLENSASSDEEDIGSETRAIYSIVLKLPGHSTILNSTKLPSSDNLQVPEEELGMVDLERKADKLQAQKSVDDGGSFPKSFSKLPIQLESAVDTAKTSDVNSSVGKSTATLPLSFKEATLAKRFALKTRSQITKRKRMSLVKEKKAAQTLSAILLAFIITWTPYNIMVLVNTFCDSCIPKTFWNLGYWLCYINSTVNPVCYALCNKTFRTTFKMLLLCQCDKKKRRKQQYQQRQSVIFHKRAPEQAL
From the text: as §1

Experiment [1] deals with NET (norepinephrine transporter) (Homo sapiens, UniProt P23975). The experiment can be described thus: PDSP radioligand binding, norepinephrine transporter. To be noted: for inhibition at 10 µM: quadruplicate, read-out: NET Primary Screen inhibition of binding.
NET (norepinephrine transporter), sequence (P23975 whole entry, species assumed): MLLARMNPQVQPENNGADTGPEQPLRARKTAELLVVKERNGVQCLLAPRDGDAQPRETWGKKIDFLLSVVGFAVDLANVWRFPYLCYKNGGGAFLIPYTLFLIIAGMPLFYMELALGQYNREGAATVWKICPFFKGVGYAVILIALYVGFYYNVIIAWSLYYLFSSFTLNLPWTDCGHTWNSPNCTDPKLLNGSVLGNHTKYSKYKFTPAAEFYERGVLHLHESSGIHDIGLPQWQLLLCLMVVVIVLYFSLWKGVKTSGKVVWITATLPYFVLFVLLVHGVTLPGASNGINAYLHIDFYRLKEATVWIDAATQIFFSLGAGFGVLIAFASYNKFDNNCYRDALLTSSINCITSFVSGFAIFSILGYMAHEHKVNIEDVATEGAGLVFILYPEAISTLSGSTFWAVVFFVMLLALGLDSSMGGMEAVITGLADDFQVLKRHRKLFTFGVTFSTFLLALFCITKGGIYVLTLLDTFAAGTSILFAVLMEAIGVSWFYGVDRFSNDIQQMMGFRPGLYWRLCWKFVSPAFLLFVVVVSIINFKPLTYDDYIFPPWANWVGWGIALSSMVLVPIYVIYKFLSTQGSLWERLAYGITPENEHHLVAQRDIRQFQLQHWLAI
From the text: as §1

The target in another experiment is 5-ht1e (Homo sapiens, UniProt P28566). The experiment can be described thus: PDSP radioligand binding, serotonin receptor 5-HT1E.
5-ht1e, sequence (P28566 whole entry, species assumed): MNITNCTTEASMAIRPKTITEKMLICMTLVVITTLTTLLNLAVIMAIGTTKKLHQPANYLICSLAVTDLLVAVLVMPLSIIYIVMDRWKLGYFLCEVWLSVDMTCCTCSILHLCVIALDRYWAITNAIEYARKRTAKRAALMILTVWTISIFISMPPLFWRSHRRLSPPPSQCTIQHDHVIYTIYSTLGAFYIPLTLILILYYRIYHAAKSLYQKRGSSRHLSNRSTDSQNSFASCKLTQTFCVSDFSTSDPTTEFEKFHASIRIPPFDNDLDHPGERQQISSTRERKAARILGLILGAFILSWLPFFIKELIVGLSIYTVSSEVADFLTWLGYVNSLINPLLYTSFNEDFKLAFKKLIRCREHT
From the text: as §1

H1, sequence (P35367 whole entry): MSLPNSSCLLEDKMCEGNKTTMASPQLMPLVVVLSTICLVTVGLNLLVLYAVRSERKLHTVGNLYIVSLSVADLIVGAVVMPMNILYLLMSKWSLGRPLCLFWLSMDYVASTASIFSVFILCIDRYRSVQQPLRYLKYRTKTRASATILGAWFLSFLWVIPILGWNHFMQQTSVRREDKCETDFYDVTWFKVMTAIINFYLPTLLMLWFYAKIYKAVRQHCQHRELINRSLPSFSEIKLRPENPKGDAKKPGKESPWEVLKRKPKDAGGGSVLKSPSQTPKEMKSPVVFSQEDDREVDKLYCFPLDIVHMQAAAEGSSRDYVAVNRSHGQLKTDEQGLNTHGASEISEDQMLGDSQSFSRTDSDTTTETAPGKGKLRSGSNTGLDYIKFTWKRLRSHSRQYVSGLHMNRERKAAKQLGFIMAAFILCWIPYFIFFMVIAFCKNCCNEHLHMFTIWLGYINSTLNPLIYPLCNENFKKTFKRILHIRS
Beta2, sequence (P07550 whole entry): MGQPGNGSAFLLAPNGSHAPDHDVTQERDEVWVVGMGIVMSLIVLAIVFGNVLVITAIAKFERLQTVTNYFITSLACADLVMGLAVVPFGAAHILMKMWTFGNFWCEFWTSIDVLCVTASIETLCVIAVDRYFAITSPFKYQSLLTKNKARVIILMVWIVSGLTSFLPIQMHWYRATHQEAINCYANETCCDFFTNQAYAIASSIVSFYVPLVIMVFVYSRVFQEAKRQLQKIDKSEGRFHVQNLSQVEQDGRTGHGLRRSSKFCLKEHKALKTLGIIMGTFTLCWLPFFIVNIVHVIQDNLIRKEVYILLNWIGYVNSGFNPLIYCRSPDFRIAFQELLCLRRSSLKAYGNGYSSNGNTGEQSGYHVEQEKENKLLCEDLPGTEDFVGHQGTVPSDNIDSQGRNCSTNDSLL
A4B4, sequence (P09483 31-630): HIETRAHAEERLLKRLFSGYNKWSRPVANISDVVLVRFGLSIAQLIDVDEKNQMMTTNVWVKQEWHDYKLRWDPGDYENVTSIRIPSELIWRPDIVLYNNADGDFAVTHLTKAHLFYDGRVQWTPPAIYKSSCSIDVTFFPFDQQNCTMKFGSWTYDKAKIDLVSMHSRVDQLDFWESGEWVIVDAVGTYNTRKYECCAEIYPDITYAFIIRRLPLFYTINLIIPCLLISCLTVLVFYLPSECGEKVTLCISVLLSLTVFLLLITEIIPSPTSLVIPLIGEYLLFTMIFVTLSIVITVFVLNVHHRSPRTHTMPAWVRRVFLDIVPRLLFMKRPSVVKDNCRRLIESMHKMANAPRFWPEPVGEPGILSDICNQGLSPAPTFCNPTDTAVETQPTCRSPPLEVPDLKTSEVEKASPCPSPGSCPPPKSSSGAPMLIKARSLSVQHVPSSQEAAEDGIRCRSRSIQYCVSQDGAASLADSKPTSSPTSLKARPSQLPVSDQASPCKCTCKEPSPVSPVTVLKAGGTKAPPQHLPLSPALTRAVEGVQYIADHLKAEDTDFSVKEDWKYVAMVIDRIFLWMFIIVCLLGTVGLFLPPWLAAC
A4B4, sequence (P12392 21-495): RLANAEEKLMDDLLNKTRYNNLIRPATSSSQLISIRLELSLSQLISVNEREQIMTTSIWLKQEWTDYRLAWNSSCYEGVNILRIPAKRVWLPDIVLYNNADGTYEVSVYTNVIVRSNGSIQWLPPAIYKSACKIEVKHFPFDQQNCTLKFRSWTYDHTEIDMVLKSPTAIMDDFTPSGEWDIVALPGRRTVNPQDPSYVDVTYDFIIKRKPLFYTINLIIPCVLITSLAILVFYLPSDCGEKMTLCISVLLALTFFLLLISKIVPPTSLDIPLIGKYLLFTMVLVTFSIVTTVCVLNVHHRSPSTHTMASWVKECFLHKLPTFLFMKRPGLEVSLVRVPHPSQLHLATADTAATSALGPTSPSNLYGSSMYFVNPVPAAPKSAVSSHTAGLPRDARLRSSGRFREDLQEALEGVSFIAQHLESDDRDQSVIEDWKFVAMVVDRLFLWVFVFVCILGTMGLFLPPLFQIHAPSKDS
KOR, sequence (P41145 whole entry): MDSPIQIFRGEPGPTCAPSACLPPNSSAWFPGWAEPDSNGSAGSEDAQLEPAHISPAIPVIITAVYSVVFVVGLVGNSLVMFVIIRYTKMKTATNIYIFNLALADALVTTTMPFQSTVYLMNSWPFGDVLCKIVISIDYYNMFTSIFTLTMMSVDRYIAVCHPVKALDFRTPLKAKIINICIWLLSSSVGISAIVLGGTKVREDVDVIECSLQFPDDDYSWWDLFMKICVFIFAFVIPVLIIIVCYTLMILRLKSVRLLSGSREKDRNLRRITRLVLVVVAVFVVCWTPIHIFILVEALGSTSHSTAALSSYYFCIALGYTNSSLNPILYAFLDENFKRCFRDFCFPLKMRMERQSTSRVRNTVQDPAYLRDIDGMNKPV
H3, sequence (Q9Y5N1 whole entry): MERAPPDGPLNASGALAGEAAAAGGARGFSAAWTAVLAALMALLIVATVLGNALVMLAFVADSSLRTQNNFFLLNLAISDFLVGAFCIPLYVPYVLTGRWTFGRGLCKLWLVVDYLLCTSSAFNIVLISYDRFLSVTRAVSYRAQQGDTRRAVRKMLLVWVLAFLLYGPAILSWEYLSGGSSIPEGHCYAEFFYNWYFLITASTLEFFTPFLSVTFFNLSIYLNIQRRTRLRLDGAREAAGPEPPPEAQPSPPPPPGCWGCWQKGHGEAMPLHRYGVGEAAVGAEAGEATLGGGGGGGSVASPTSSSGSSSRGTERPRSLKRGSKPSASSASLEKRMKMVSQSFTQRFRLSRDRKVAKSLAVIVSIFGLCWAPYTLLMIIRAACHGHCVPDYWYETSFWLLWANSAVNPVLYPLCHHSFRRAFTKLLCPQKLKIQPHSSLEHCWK

Turning to `CCNC1(c2cccc(OC)c2)CCCCC1=O` (racemic) [Methoxetamine, (RS)-2-(ethylamino)-2-(3-methoxyphenyl)cyclohexanone], the inhibitory constant (Ki) at A3B2, at KOR, on M1, on BZP Rat Brain Site, on GABAA and on M5 was above 10 µM in each case. Also, the inhibition constant (Ki) at A4B4 was above 10 µM; at Sigma1, above 10 µM; at Beta2 it was above 10 µM; at Alpha2A, above 10 µM; at D5, above 10 µM; at H1, 2.96 µM. For the same compound, the inhibitory constant (Ki) (at H3; on 5-HT2C; on M3; in experiment [1]; on 5-ht1e) was above 10 µM each time. In addition, the inhibition at 10 µM on Sigma1 (10 µM, quadruplicate, read-out: Sigma1 Primary Screen inhibition of binding) was below 50%; in [1], below 50%.

For `COc1cccc(C2(N3CCCCC3)CCCCC2)c1` [3-MeO-PCP, 1-[1-(3-methoxyphenyl)cyclohexyl]piperidine], the Ki on A3B2, at KOR, at M1, at BZP Rat Brain Site, on GABAA and on M5 was above 10 µM each time. Further, the inhibition constant (Ki) at A4B4 was above 10 µM; on Sigma1, 0.042 µM; on Beta2, above 10 µM; on Alpha2A, 0.964 µM; at D5 it was above 10 µM; on H1 it was above 10 µM. Moreover, the Ki (on H3; at 5-HT2C; on M3; in experiment [1]; at 5-ht1e) was above 10 µM each time. Also, the inhibition at 10 µM in experiment [1] was below 50%.

Turning to `COc1ccc(C2(N3CCCCC3)CCCCC2)cc1` [4-MeO-PCP, 1-[1-(4-methoxyphenyl)cyclohexyl]piperidine], the Ki at A3B2, at KOR, at M1, on BZP Rat Brain Site, on GABAA and at M5 was above 10 µM throughout. Also, the Ki is above 10 µM at A4B4; 0.296 µM on Sigma1; above 10 µM on Beta2; above 10 µM on Alpha2A; above 10 µM at D5; above 10 µM at H1. Besides, the inhibition constant Ki at H3 was above 10 µM; on 5-HT2C, above 10 µM; on M3, above 10 µM; in experiment [1], 0.713 µM; on 5-ht1e, above 10 µM.

Source of the values: paper PMC3602154 (PLoS ONE, 2013).
